Source: the SangsterLogP compilation

Test: method code SF-AS, from DOI: 10.1111/j.1399-3011.1986.tb03252.x
Conditions: pH 7.0

Row | SMILES | logD
1 | CC(=O)NC(C)C(N)=O (stereo not drawn) | -1.41
2 | CCCC(NC(C)=O)C(N)=O (stereo not drawn) | -0.45
3 | CC(=O)NC(Cc1ccccc1)(Cc1ccccc1)C(N)=O | 2.09
4 | CCCC(CCC)(NC(C)=O)C(N)=O | 0.75
5 | C=CCC(NC(C)=O)C(N)=O (stereo not drawn) | -0.86
6 | CC(=O)NCC(N)=O | -1.68
7 | CC(=O)NC(C)(C)C(N)=O | -0.87
8 | C=CCC(CC=C)(NC(C)=O)C(N)=O | 0.05
